Reference: article PMC4923880, “Urbilaterian origin of paralogous GnRH and corazonin neuropeptide signalling pathways” (Scientific Reports, 2016)
Square brackets hold non-standard residues; d marks the D form. Ends that are not written are not given here. Peptide text beside a SMILES is read from it. pGlu = O=C1CC[C@@H](C(=O)O)N1

Assays:
ArGnRHR = ArGnRHR (Asterias rubens, UniProt A0A1B0YGS0); experiment: Bioluminescence (Ca2+) receptor activation assay, ArGnRHR in CHO-K1 cells with aequorin and Gα16; format: cell-based; conditions: for activation of ArGnRHR (bioluminescence response, in words) / activation of ArGnRHR by other GnRH/CRZ-type or starfish neuropeptides (in words): CHO-K1/aequorin/Gα16 cells; for activation of ArGnRHR (bioluminescence response, in words): concentrations 10^−4 M to 10^−14 M, peptide 2 over the same concentration range as peptide 1; for activation of ArGnRHR by other GnRH/CRZ-type or starfish neuropeptides (in words): 10 μM, Supplementary Figure S8
Chain of ArGnRHR (A0A1B0YGS0 entry or part of it): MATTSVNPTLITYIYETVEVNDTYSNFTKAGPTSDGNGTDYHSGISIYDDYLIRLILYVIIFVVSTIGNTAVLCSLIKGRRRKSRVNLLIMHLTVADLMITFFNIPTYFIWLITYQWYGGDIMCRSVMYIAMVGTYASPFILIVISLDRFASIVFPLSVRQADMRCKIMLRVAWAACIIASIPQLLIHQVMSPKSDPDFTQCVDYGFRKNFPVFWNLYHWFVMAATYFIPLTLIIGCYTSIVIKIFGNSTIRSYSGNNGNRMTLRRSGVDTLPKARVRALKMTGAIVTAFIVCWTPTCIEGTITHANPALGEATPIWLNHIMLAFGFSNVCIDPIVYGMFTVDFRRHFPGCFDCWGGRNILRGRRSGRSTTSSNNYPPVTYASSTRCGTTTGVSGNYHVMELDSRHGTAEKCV
From the text: (§1) ArGnRHR and ArCRZR were cloned as described previously[23] and the positions of the primers used are indicated in Supplementary Figures S1 and S2. Next, the ORF of ArGnRHR was amplified using the oligos 5′-aagcttCACCATGGCGACTACATC-3′ and 5′-ctcgagTTATACACATTTCTCAG-3′ and subcloned into the eukaryotic expression vector pcDNA 3.1+ (Invitrogen) that was cut with HindIII and XhoI; The ORF of ArCRZR was amplified using the oligos 5′- gatatcCACCATGAGTGTTCAAT-3′ and 5′-tctagaTCAGGTTGTTGTTGTGA-3′ and subcloned into pcDNA 3.1+ that was cut with EcoRV and XbaI. A partial Kozak translation initiation sequence (CACC) was also introduced in the upstream primer. Chinese hamster ovary (CHO)-K1 cells stably overexpressing the human Gα16 protein and mitochondrial targeted apo-aequorin were used as a heterologous expression system to functionally characterize the receptors. Cells were cultured, transfected and a bioluminescence assay performed as described previously. The A. rubens neuropeptides pQIHYKNPGWGPG-NH2 and HNTFTMGGQNRWKAG-NH2 were custom synthesized by PPR Ltd (Fareham, UK) and were tested as candidate ligands for ArGnRHR and ArCRZR at concentrations ranging from 10^−4 M to 10^−14 M. Ca^2+ responses were normalized to the total Ca^2+ response monitored after addition of Triton X-100 (0.1%). Dose–response data were determined as a % of the highest response (100% activation). EC50 values were calculated from dose–response curves based on at least three independent transfections (Prism 6.0). Other GnRH/CRZ-type neuropeptides (Drosophila AKH and Drosophila AKH) and other starfish neuropeptides (NGFFYamide, SALMFamide-1 and SALMFamide-2[16][24]) were also tested (at 10 μM) to assess the specificity of receptor activation.

ArCRZR = ArCRZR (Asterias rubens, UniProt A0A1B0YGT7); experiment: Bioluminescence (Ca2+) receptor activation assay, ArCRZR in CHO-K1 cells with aequorin and Gα16; format: cell-based; conditions: for activation of ArCRZR by other GnRH/CRZ-type or starfish neuropeptides (in words): 10 μM, Supplementary Figure S8
Chain of ArCRZR (A0A1B0YGT7 entry or part of it): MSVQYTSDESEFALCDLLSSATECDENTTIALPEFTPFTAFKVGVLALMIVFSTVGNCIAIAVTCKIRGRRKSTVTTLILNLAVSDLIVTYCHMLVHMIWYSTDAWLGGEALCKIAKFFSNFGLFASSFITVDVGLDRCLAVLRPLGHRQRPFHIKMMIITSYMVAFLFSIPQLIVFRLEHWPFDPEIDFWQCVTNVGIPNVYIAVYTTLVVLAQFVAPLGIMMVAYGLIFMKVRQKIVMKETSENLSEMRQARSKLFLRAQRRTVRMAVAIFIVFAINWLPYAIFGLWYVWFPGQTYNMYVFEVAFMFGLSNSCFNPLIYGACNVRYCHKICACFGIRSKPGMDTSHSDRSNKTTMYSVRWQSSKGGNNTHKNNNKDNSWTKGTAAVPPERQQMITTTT
From the text: as §1

[1] = test system: cells transfected with an empty vector; experiment: Bioluminescence assay, cells transfected with an empty vector (control); format: cell-based, Chinese hamster; conditions: data not shown
From the text: as §1, with “Chinese hamster ovary (CHO)-K1 cells stably overexpressing the human Gα16 protein and mitochondrial targeted apo-aequorin were used as a heterologous expression system to functionally characterize the receptors. Cells were cultured, transfected and a bioluminescence assay performed as described previously.” left out, “Other GnRH/CRZ-type neuropeptides (Drosophila AKH and Drosophila AKH) and other starfish neuropeptides (NGFFYamide, SALMFamide-1 and SALMFamide-2[16][24]) were also tested (at 10 μM) to assess the specificity of receptor activation.” left out

CRZ-type receptor = conditions: one of two CRZ-type receptors; ref [14]; cited from earlier work
From the text: (§2) It is not known, however, if this predicted mature peptide actually exists in B. floridae. […] Thus, it remains to be established whether or not distinct GnRH-type and CRZ-type signalling pa ...

GnRH-type receptors = conditions: two GnRH-type receptors; ref [14]; cited from earlier work
From the text: as §2

CC[C@H](C)[C@H](NC(=O)[C@@H]1CCC(=O)N1)C(=O)N[C@@H](Cc1c[nH]cn1)C(=O)N[C@@H](Cc1ccc(O)cc1)C(=O)N[C@@H](CCCCN)C(=O)N[C@@H](CC(N)=O)C(=O)N1CCC[C@H]1C(=O)NCC(=O)N[C@@H](Cc1c[nH]c2ccccc12)C(=O)NCC(=O)N1CCC[C@H]1C(=O)NCC(N)=O [peptide 1] ([pGlu]IHYKNPGWGPG-NH2)
EC50 (ArGnRHR): 0.000603 µM
activation of ArGnRHR (bioluminescence response, in words) (ArGnRHR): dose-dependent activation
activation of ArGnRHR (bioluminescence response, in words) (ArGnRHR; listed as Peptide 1): dose-dependent stimulation of a bioluminescence response
activation of ArGnRHR (bioluminescence response, in words) (ArGnRHR; listed as pQIHYKNPGWGPG-NH2): specifically activates an A. rubens GnRH-type receptor
activation of ArCRZR (bioluminescence response, in words) (ArCRZR; CHO-K1/aequorin/Gα16 cells, concentrations 10^−4 M to 10^−14 M, peptide 1 over a similar concentration range as peptide 2): no effect
response of cells transfected with an empty vector (in words) [1]: Neither peptide 1 nor peptide 2 elicited any response

CSCC[C@H](NC(=O)[C@@H](NC(=O)[C@H](Cc1ccccc1)NC(=O)[C@@H](NC(=O)[C@H](CC(N)=O)NC(=O)[C@@H](N)Cc1c[nH]cn1)[C@@H](C)O)[C@@H](C)O)C(=O)NCC(=O)NCC(=O)N[C@@H](CCC(N)=O)C(=O)N[C@@H](CC(N)=O)C(=O)N[C@@H](CCCNC(=N)N)C(=O)N[C@@H](Cc1c[nH]c2ccccc12)C(=O)N[C@@H](CCCCN)C(=O)N[C@@H](C)C(=O)NCC(N)=O [peptide 2] (H-HNTFTMGGQNRWKAG-NH2)
EC50 (ArCRZR): 0.115 µM

CRZ: other GnRH/CRZ-type peptide (Drosophila corazonin) (QTFQYSRGWTN; ends and bridges not checked; UniProt Q26377 20-30, looked up)
activation of ArGnRHR by other GnRH/CRZ-type or starfish neuropeptides (in words) (ArGnRHR): Neither receptor was activated
activation of ArCRZR by other GnRH/CRZ-type or starfish neuropeptides (in words) (ArCRZR; CHO-K1/aequorin/Gα16 cells): Neither receptor was activated

Drosophila AKH: other GnRH/CRZ-type peptide (Drosophila adipokinetic hormone) (QLTFSPDW; ends and bridges not checked; UniProt P61855 23-30, looked up)
activation of ArGnRHR by other GnRH/CRZ-type or starfish neuropeptides (in words) (ArGnRHR): Neither receptor was activated
activation of ArCRZR by other GnRH/CRZ-type or starfish neuropeptides (in words) (ArCRZR; CHO-K1/aequorin/Gα16 cells): Neither receptor was activated

NGFFYamide
activation of ArGnRHR by other GnRH/CRZ-type or starfish neuropeptides (in words) (ArGnRHR): Neither receptor was activated
activation of ArCRZR by other GnRH/CRZ-type or starfish neuropeptides (in words) (ArCRZR; CHO-K1/aequorin/Gα16 cells): Neither receptor was activated

pQILCARAFTYTHTW-NH2 [candidate neuropeptide in the cephalochordate Branchiostoma floridae]
activation of B. floridae CRZ-type receptors (in words) (CRZ-type receptor): activates one of two CRZ-type receptors
activation of B. floridae GnRH-type receptors (in words) (GnRH-type receptors): neither of two GnRH-type receptors
